Key:
Details in all cases: 72 h
Calu-3 [1] = test: cell viability relative to DMSO; higher = less toxic
Caco-2 [2] = test: as above
Vero E6 [3] = test: as above
HepG2 [4] = test: as above
Calu-3 [5] = test: drug sensitivity score (DSS) for viability; higher = more toxic; extreme values may be limits of the assay
Caco-2 [6] = test: as above
Vero E6 [7] = test: as above
HepG2 [8] = test: as above
Calu-3 [9] = test: relative viability EC50 (midpoint between 100% and the lowest measured viability); higher = less toxic
Caco-2 [10] = test: as above
Vero E6 [11] = test: as above
HepG2 [12] = test: as above
U2OS [13] = test: cell viability relative to DMSO; higher = less toxic
U2OS [14] = test: drug sensitivity score (DSS) for viability; higher = more toxic; extreme values may be limits of the assay
U2OS [15] = test: relative viability EC50 (midpoint between 100% and the lowest measured viability); higher = less toxic

| Compound | cell viability (Calu-3 [1]; 1 nM) [%] | cell viability (Calu-3 [1]; 10 nM) [%] | cell viability (Calu-3 [1]; 100 nM) [%] | cell viability (Calu-3 [1]; 1000 nM) [%] | cell viability (Calu-3 [1]; 10000 nM) [%] | cell viability (Caco-2 [2]; 1 nM) [%] | cell viability (Caco-2 [2]; 10 nM) [%] | cell viability (Caco-2 [2]; 100 nM) [%] | cell viability (Caco-2 [2]; 1000 nM) [%] | cell viability (Caco-2 [2]; 10000 nM) [%] | cell viability (Vero E6 [3]; 1 nM) [%] | cell viability (Vero E6 [3]; 10 nM) [%] | cell viability (Vero E6 [3]; 100 nM) [%] | cell viability (Vero E6 [3]; 1000 nM) [%] | cell viability (Vero E6 [3]; 10000 nM) [%] | cell viability (HepG2 [4]; 1 nM) [%] | cell viability (HepG2 [4]; 10 nM) [%] | cell viability (HepG2 [4]; 100 nM) [%] | cell viability (HepG2 [4]; 1000 nM) [%] | cell viability (HepG2 [4]; 10000 nM) [%] | drug sensitivity score (Calu-3 [5]) | drug sensitivity score (Caco-2 [6]) | drug sensitivity score (Vero E6 [7]) | drug sensitivity score (HepG2 [8]) | relative viability EC50 (Calu-3 [9]) [µM] | relative viability EC50 (Caco-2 [10]) [µM] | relative viability EC50 (Vero E6 [11]) [µM] | relative viability EC50 (HepG2 [12]) [µM] | cell viability (U2OS [13]; 1 nM) [%] | cell viability (U2OS [13]; 10 nM) [%] | cell viability (U2OS [13]; 100 nM) [%] | cell viability (U2OS [13]; 1000 nM) [%] | cell viability (U2OS [13]; 10000 nM) [%] | drug sensitivity score (U2OS [14]) | relative viability EC50 (U2OS [15]) [µM] |
| --- | --- | --- | --- | --- | --- | --- | --- | --- | --- | --- | --- | --- | --- | --- | --- | --- | --- | --- | --- | --- | --- | --- | --- | --- | --- | --- | --- | --- | --- | --- | --- | --- | --- | --- | --- |
| CC(C)(OCc1nn(Cc2ccccc2)c2ccccc12)C(=O)O [bindarit] | 99 | 95.5 | 106 | 95.1 | 104 | 104 | 101 | 108 | 102 | 96.8 | 102 | 105 | 100 | 107 | 91.4 | 97.2 | 96.4 | 100 | 99.2 | 100 | 0 | 0 | 0 | 0 | > 10 | > 10 | > 10 | > 10 |  |  |  |  |  |  |  |
| NNC(=O)CSc1nc2scc(-c3ccccc3)c2c(=O)n1-c1ccccc1 | 91.9 | 93.2 | 95.3 | 103 | 101 | 100 | 97.7 | 93.1 | 93.6 | 108 | 94.1 | 97.1 | 94.8 | 90.5 | 109 |  |  |  |  |  | 0 | 0 | 0 |  | > 10 | > 10 | > 10 |  | 97.7 | 95.8 | 98.3 | 103 | 102 | 0 | > 10 |
| O=C(O)c1cc(-c2ccc(F)cc2F)ccc1O [diflunisal] | 103 | 109 | 109 | 99.6 | 95.7 | 93.3 | 105 | 93.9 | 105 | 104 | 103 | 100 | 92.9 | 98.4 | 97.1 |  |  |  |  |  | 0 | 0 | 0 |  | > 10 | > 10 | > 10 |  |  |  |  |  |  |  |  |
| COc1cccc(OC)c1OCCNC[C@H]1COc2ccccc2O1 [WB-4101] | 107 | 102 | 104 | 90.9 | 80.8 | 105 | 104 | 106 | 106 | 85.3 | 104 | 100 | 99.1 | 98.2 | 98.5 | 106 | 109 | 107 | 103 | 93.2 | 1.4 | 0.1 | 0 | 0 | > 10 | > 10 | > 10 | > 10 |  |  |  |  |  |  |  |

Source: the supplement of paper PMC13380429
